Assay results reported in patent US11879013B2, “Combination therapies with bispecific anti-EGFR/c-Met antibodies and third generation EGFR tyrosine kinase inhibitors” (Janssen Biotech, Inc., priority 2019, dated 2024).

What was measured:
H1975-HGF xenografts = test: Antitumor activity in H1975-HGF human lung carcinoma xenograft model; assay type: in vivo, female athymic nude mice; details: for TGI as compared to controls: Day 28, 10 mg/kg each agent, TKI po qd x 21, JNJ-372 ip biwk x 3
[1] = Body weight and clinical signs of nude mice bearing H1975 xenografts; assay type: in vivo, female athymic nude mice; details: for body weight change compared to the control group: H1975-xenograft-bearing nude mice, 10 mg/kg, JNJ-372 at Day 29, TKI-containing groups p<0.05; for day of euthanasia due to negative clinical signs / animals euthanized due to negative clinical signs: H1975 study; for animals euthanized due to negative clinical signs: n=10/group, unclear whether due to tumor burden or treatment
Protocol: (§1) Female athymic nude mice were used in the studies (n=10/group). Treatment began when SC tumors reached approximately 100 to 300 mm^3 in size. and dosing was initiated according to the treatment plan summarized in Table 2. […] The control group was dosed with vehicle orally daily for 21 days, and the isotype control antibody was dosed twice a week IP for 3 weeks. Mice were monitored for body weight and tumor volume up to Day 95, and were euthanized when individual tumor volume reached 2,000 mm^3 or at study conclusion.
(§2) Relative body weight of individual mice was calculated using the formula: (W/W0)×100, where ‘W’ represents body weight on a particular day, and ‘W0’ represents body weight at initiation of treatment. Body weight was graphically represented as mean % of initial body weight±SEM.
Statistical significance was evaluated for all pairwise comparisons on the last day of the study when at least eight mice remained in each group. Differences between groups were considered significant when p≤0.05. Statistical significance of tumor volume and body weight was calculated using the Linear Mixed-Effects analysis in R software version 3.4.2 (using Janssen's internally developed Shiny application version 3.3), with treatment and time as fixed effects and animal as random effect. Logarithmic transformation (base 10) was performed if individual longitudinal response trajectories were not linear. The information derived from this model was used to make pairwise treatment comparisons to the control group or between all the treatment groups.

[2] = Body weight and clinical signs of nude mice bearing H1975-HGF xenografts; assay type: in vivo, female athymic nude mice; details: for day found dead or euthanized / mice found dead or euthanized due to negative clinical signs: H1975-HGF study; for mice found dead or euthanized due to negative clinical signs: n=10/group, unclear whether due to tumor burden or treatment; for body weight change compared to the control group: H1975-HGF-tumor-bearing mice, 10 mg/kg, JNJ-372 at Day 28, TKI-containing groups p<0.05
Protocol: as §1, §2
Tumor volume and body weight data were graphically represented using Prism software (GraphPad, version 7). Statistical significance was evaluated for all pairwise comparisons on the last day of the study when at least eight mice remained in each group. Differences between groups were considered significant when p≤0.05. […] Logarithmic transformation (base 10) was performed if individual longitudinal response trajectories were not linear. The information derived from this model was used to make pairwise treatment comparisons to the control group or between all the treatment groups.
The experimental design was as described in Example 1 except that H1975 cells stably transfected to express hepatocyte growth factor (HGF) (H1975-HGF cells) were used in the studies and hereafter referred to as H1975-HGF-CNT.

mouse EGFR = mouse EGFR (Mus musculus, UniProt Q01279); test: Binding of JNJ-372 to mouse EGFR
mouse c-Met = mouse c-Met (Mus musculus, UniProt P16056); test: Binding of JNJ-372 to mouse c-Met
[3] = tested on: H1975 human lung xenografts; test: Antitumor activity in H1975 human lung carcinoma xenograft model; details: for TGI as compared to controls: Day 28, 10 mg/kg each agent, TKI po qd x 21, JNJ-372 ip biwk x 3
Protocol: The animals were fed ad libitum water (reverse osmosis, 1 ppm Cl) and NIH 31 Modified and Irradiated Lab Diet® consisting of 18.0% crude protein, 5.0% crude fat, and 5.0% crude fiber. The mice were housed on irradiated Enrich-o'Cobs™ Laboratory Animal Bedding in static microisolators on a 12-hour light cycle at 20-22° C. (68-72° F.) and at 40-60% humidity. All studies complied with the recommendations of the Guide for Care and Use of Laboratory Animals with respect to restraint, husbandry, surgical procedures, feed and fluid regulation, and veterinary care.
NCI-H1975 cells were grown to mid-log phase in RPMI 1640 medium containing 10% fetal bovine serum, 2 mM glutamine, 100 units/mL sodium penicillin G, 25 μg/mL gentamicin, and 100 μg/mL streptomycin sulfate. The tumor cells were cultured in tissue culture flasks in a humidified incubator at 37° C., in an atmosphere of 5% CO2 and 95% air.
On the day of implant, the NCI-H1975 cells were harvested during log phase growth and resuspended in phosphate buffered saline (PBS) at a concentration of 5×10^7 cells/mL. Xenografts were initiated by subcutaneously implanting 5×10^6 NCI-H1975 cells per animal (0.1 mL suspension) into the right flank of each test animal and tumors were monitored as their volumes approached the target range of 150-200 mm^3. Fifteen days later, animals were sorted into bins by calculated tumor volumes based on vernier caliper measurements of tumor width and length to the nearest mm. The animals were then heuristically sorted among treatment groups, balancing the distribution of small to large sized tumor volumes among group assignments. […] Tumor size, in mm3, was calculated using the following formula: Tumor Volume=(w^2×l)/2 where w=width and l=length, in mm, of the tumor. […]
Female athymic nude mice were used in the studies (n=10/group). […] Mice were monitored for body weight and tumor volume up to Day 95, and were euthanized when individual tumor volume reached 2,000 mm^3 or at study conclusion.
Tumor volume data were graphically represented as the mean tumor volume±SEM. Tumor volume was calculated using the formula: tumor volume (mm^3)=(D×d2)/2; where ‘D’ represents the larger diameter, and ‘d’ the smaller diameter of the tumor as determined by caliper measurements.
The % TGI was defined as the difference between mean tumor burden of the treated and control group, calculated as % ΔTGI=([(TVc−TVc0)−(TVt−TVt0)]/(TVc−TVc0))×100 where ‘TVc’ is the mean tumor burden of a given control group, ‘TVc0’ is the mean initial tumor burden of a given control group, ‘TVt’ is the mean tumor burden of the treated group, and ‘TVt0’ is the mean initial tumor burden of the treated group.

EGFR-mutated NSCLC = test: FIH dose escalation study of lazertinib monotherapy; assay type: in vivo, human
Protocol: The safety profile and preliminary efficacy of both agents in EGFR-mutated NSCLC population is based upon clinical experience of approximately 100 subjects in each study, including those enrolled into expansion cohorts at their respective RP2D.
In the current monotherapy dosing regimen, lazertinib is administered as a daily oral therapy, while JNJ-61186372 is administered intravenously weekly during Cycle 1, and then every other week thereafter, beginning with Cycle 2 Day 1.

[4] = n=10/group, 10 mg/kg each agent

Chain of mouse c-Met (P16056 25-1379): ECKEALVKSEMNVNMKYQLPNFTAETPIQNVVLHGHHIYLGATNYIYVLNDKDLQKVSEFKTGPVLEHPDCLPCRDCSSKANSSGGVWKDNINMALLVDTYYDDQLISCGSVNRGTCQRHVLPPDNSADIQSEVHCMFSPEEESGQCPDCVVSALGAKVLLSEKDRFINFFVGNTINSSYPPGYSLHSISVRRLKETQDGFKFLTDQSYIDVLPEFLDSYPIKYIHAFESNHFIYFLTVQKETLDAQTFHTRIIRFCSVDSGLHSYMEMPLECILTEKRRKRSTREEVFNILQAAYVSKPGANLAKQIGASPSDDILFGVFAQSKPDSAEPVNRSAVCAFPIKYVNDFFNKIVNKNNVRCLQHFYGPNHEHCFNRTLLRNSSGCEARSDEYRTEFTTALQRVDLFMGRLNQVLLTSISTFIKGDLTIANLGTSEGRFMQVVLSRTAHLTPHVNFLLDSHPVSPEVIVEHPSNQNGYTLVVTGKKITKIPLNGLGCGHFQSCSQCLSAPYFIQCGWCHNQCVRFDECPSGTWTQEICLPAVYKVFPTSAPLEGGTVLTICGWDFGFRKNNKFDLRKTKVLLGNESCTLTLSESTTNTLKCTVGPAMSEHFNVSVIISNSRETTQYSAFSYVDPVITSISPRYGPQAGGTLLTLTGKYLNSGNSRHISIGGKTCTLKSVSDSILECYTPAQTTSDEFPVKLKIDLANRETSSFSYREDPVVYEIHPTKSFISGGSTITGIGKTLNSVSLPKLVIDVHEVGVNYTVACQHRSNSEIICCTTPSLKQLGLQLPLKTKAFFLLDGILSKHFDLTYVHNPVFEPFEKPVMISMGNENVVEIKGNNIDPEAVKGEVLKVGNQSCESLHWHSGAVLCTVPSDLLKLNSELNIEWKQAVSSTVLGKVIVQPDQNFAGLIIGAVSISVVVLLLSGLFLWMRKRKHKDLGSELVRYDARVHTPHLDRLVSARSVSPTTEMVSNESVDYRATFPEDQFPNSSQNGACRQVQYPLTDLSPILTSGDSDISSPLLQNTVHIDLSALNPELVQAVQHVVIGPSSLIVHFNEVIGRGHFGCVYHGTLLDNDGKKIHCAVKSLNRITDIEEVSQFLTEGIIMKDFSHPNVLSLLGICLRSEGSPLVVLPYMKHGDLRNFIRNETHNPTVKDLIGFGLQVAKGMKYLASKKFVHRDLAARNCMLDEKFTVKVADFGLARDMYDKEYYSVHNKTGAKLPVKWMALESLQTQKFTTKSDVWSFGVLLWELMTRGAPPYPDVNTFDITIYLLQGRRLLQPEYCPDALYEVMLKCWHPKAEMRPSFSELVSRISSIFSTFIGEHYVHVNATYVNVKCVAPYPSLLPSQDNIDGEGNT

Compound | TGI as compared to controls (H1975-HGF xenografts) [%] | body weight change compared to the control group [1] | day of euthanasia due to negative clinical signs [1] [days] | animals euthanized due to negative clinical signs [1] | day found dead or euthanized [2] [days] | mice found dead or euthanized due to negative clinical signs [2] | body weight change compared to the control group [2] | binding to mouse EGFR (mouse EGFR) | binding to mouse c-Met (mouse c-Met) | TGI as compared to controls [3] [%] | CRs (complete tumor regression) (H1975-HGF xenografts; [4]) | dose from which clinical activity in the targeted population was demonstrated (EGFR-mutated NSCLC; EGFR-mutated NSCLC) [mg] | DLTs (EGFR-mutated NSCLC; through doses up to 320 mg) | CRs (complete tumor regression, tumor not measurable on last day of analysis) [3, 4]
JNJ-372 | 70 | did not elicit significant body weight loss | 43 | One | 53 | One | did not elicit significant body weight loss | does not bind | does not bind | 86 | – | – | – | –
C=CC(=O)Nc1cc(Nc2nccc(-n3cc(CN(C)C)c(-c4ccccc4)n3)n2)c(OC)cc1N1CCOCC1 [Lazertinib, N-(5-(4-(4-((dimethylamino)methyl)-3-phenyl-1H-pyrazol-1-yl)pyrimidin-2-ylamino)-4-methoxy-2-morpholinophenyl)acrylamide] | 75 | some transient body weight loss | 21 | One | – | – | some transient body weight loss | – | – | 112 | 2 of 10 | 240 | no DLTs were observed | 1 of 10
C=CC(=O)Nc1cc(Nc2nccc(-c3cn(C)c4ccccc34)n2)c(OC)cc1N(C)CCN(C)C [Osimertinib, reference compound] | 57 | some transient body weight loss | – | – | 51 | One | some transient body weight loss | – | – | 111 | – | – | – | –
